# Reference: article PMC5078040 (Oncotarget, 2016)
# Assays:
# OCI-AML-3 = assay: Anti-proliferative assay; format: cell-based; settings: Homo sapiens; OCI-AML-3, AML-M4; 72 hours, CellTiter-Glo
# Description: (§1) Cells were grown in 96-well culture plates (3000-4000/well). […] Cell proliferation was determined after treatment with compounds for 72 hours. Cell viability was measured using the CellTiter–Glo Assay Kit (Promega, USA), according to the manufacturer's instructions, and luminescence was measured in a multi-label reader (Envision, PerkinElmer, USA). Data were normalized to control groups (DMSO) and represented by the mean of three independent measurements with standard error <20%. GI50 values were calculated using Prism 5.0 (GraphPad Software, San Diego, CA).
# AMO-1 = assay: Anti-proliferative assay; format: cell-based; settings: Homo sapiens, AMO1; AMO-1, MM; 72 hours, CellTiter-Glo
# Description: as §1
# U937 = assay: Anti-proliferative assay; format: cell-based; settings: Homo sapiens, U-937; U937, AML; 72 hours, CellTiter-Glo
# Description: as §1
# HL-60 = assay: Anti-proliferative assay; format: cell-based; settings: Homo sapiens; HL-60, AML-M2; 72 hours, CellTiter-Glo
# Description: as §1
# MOLM-14 = assay: Anti-proliferative assay; format: cell-based; settings: Homo sapiens; MOLM-14, AML-M5; 72 hours, CellTiter-Glo
# Description: as §1
# Namalwa = assay: Anti-proliferative assay; format: cell-based; settings: Homo sapiens, Burrkit lymphoma, 72 hours, CellTiter-Glo
# Description: as §1
# NB4 = assay: Anti-proliferative assay; format: cell-based; settings: Homo sapiens; NB4, AML-3; 72 hours, CellTiter-Glo
# Description: as §1
# MV4-11 = assay: Anti-proliferative assay; format: cell-based; settings: Homo sapiens; MV4-11, AML; 72 hours, CellTiter-Glo
# Description: as §1
# PF382 = assay: Anti-proliferative assay; format: cell-based; settings: Homo sapiens, PF-382; PF382, ALL; 72 hours, CellTiter-Glo
# Description: as §1
# HT = assay: Anti-proliferative assay; format: cell-based; settings: Homo sapiens, B-cell lymphoma, 72 hours, CellTiter-Glo
# Description: as §1
# SKM-1 = assay: Anti-proliferative assay; format: cell-based; settings: Homo sapiens; SKM-1, AML-M5; 72 hours, CellTiter-Glo
# Description: as §1
# CMK = assay: Anti-proliferative assay; format: cell-based; settings: Homo sapiens, AML, 72 hours, CellTiter-Glo
# Description: as §1
# HEL = assay: Anti-proliferative assay; format: cell-based; settings: Homo sapiens, AML-M6, 72 hours, CellTiter-Glo
# Description: as §1
# OCI-AML-2 = assay: Anti-proliferative assay; format: cell-based; settings: Homo sapiens, OCI-AML2; OCI-AML-2, AML-M4; 72 hours, CellTiter-Glo
# Description: as §1
# RPMI8226 = assay: Anti-proliferative assay; format: cell-based; settings: Homo sapiens, RPMI-8226; RPMI8226, MM; 72 hours, CellTiter-Glo
# Description: as §1
# NOMO-1 = assay: Anti-proliferative assay; format: cell-based; settings: Homo sapiens; NOMO-1, AML-M5; 72 hours, CellTiter-Glo
# Description: as §1
# Ramos(new) = assay: Anti-proliferative assay; format: cell-based; settings: Homo sapiens, Burrkit lymphoma, 72 hours, CellTiter-Glo
# Description: as §1
# NALM-6 = assay: Anti-proliferative assay; format: cell-based; settings: Homo sapiens, 72 hours, CellTiter-Glo
# Description: as §1
# MOLM-13 = assay: Anti-proliferative assay; format: cell-based; settings: Homo sapiens; MOLM-13, AML-M5; 72 hours, CellTiter-Glo
# Description: as §1
# JVM-2 = assay: Anti-proliferative assay; format: cell-based; settings: Homo sapiens; JVM-2, Mantle cell lymphoma; 72 hours, CellTiter-Glo
# Description: as §1
# PI3Kβ = target: T1, PI3Kβ (Mus musculus, UniProt Q8BTI9); assay: PI3Ks isoform in cell EC50 assay (AKT phosphorylation, Western Blotting); format: cell-based; settings: NIH-3T3, 5μM LPA, read-out: cellular EC50 PI3K Beta
# T1 construct: endogenous in cells; host or cells: NIH-3T3
# PI3Kα = target: T2, PI3Kα (Mus musculus, UniProt P42337); assay: as above; format: cell-based; settings: NIH-3T3, 20ng/ml PDGF-BB, read-out: cellular EC50 PI3K Alpha
# T2 construct: endogenous in cells; host or cells: NIH-3T3
# Hs 505T = assay: Anti-proliferative assay; format: cell-based; settings: Homo sapiens, CLL, 72 hours, CellTiter-Glo
# Description: as §1
# MEC-1 = assay: Anti-proliferative assay; format: cell-based; settings: Homo sapiens, MEC1; MEC-1, CLL; 72 hours, CellTiter-Glo
# Description: as §1
# MEC-2 = assay: Anti-proliferative assay; format: cell-based; settings: Homo sapiens, MEC2; MEC-2, CLL; 72 hours, CellTiter-Glo
# Description: as §1
# AML patient primary cell = assay: Anti-proliferative efficacy against patient primary cells; format: cell-based; settings: Homo sapiens
# Description: Mononuclear cells were isolated from AML patients. Mononuclear cells were isolated by density gradient centrifugation through Ficoll-Plaque Plus (Amersham Pharmacia Biotech AB, Uppsala, Sweden) at 2000 rpm for 30 minutes, followed by two washes in 1X PBS. Freeze-thawed cells were then cultured in liquid culture (DMEM, supplemented with 20% FBS). All blood and bone marrow samples from AML patients were obtained through written consent under approval of the Dana Farber Cancer Institute Institutional Review Board. The ethics committees approved the consent procedure.
# as §1
# PI3Kγ = PI3Kγ (Mus musculus, UniProt Q9JHG7); assay: cell-based
# CLL patient primary cell = assay: Anti-proliferative efficacy against patient primary cells; format: cell-based; settings: Homo sapiens
# Description: Peripheral blood mononuclear cells (PBMCs) from individuals with CLL were isolated by density centrifugation through Ficoll and frozen for each subject. Those subjects with low white counts whose CLL cell purity was expected to be < 85% underwent B cell isolation using RosetteSep. The protocol was approved by the Dana-Farber Harvard Cancer Center Institutional Review Board and all subjects signed written informed consent prior to participation.
# as §1
# T1 sequence (Q8BTI9 whole entry, canonical isoform): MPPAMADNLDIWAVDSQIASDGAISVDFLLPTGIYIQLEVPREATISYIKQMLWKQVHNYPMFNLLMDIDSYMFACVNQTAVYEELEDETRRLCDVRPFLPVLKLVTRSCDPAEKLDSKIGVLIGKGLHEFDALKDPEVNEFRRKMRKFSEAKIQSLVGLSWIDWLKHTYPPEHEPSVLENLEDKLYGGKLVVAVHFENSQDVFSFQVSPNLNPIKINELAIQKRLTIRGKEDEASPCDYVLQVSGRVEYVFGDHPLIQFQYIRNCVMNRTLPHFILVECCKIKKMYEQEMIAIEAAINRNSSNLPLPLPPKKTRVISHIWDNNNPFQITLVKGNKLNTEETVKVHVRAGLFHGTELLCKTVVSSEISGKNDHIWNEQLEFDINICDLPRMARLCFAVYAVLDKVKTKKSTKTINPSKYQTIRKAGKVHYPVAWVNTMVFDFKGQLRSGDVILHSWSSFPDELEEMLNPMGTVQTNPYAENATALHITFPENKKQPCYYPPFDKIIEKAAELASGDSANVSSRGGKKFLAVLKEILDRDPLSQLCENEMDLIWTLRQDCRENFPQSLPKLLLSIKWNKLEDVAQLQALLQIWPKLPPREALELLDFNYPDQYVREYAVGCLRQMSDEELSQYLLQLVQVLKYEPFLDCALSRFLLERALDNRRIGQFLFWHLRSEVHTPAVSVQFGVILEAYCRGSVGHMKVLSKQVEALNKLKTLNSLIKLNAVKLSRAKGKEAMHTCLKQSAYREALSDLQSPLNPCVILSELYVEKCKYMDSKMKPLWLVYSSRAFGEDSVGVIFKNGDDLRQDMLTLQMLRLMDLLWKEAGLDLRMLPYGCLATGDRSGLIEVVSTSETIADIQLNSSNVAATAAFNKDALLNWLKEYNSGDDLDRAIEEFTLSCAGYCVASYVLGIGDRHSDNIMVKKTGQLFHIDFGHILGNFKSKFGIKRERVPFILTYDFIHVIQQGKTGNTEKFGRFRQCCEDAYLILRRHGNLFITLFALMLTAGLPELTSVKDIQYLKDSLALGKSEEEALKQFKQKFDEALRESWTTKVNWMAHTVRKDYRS
# T1 sequence (P26450 whole entry partner, canonical isoform): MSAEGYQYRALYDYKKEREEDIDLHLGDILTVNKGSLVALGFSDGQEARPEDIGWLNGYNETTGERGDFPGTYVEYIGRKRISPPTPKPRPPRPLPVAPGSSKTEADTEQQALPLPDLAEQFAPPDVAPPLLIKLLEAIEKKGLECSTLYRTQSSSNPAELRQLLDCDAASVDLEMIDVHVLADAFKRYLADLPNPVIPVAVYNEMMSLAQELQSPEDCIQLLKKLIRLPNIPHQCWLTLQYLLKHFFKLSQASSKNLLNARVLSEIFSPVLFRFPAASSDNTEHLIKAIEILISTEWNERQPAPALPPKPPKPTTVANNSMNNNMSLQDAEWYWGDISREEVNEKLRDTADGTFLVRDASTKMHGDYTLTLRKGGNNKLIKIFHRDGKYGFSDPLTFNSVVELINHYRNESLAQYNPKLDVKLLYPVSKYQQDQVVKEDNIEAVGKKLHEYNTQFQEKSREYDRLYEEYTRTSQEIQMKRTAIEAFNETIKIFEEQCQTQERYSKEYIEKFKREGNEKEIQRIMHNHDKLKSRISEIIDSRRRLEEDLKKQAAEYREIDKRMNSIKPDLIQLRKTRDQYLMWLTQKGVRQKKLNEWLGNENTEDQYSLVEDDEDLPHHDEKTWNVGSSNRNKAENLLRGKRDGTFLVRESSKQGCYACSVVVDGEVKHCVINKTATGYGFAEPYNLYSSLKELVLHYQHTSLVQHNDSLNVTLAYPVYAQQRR
# T2 sequence (P42337 whole entry): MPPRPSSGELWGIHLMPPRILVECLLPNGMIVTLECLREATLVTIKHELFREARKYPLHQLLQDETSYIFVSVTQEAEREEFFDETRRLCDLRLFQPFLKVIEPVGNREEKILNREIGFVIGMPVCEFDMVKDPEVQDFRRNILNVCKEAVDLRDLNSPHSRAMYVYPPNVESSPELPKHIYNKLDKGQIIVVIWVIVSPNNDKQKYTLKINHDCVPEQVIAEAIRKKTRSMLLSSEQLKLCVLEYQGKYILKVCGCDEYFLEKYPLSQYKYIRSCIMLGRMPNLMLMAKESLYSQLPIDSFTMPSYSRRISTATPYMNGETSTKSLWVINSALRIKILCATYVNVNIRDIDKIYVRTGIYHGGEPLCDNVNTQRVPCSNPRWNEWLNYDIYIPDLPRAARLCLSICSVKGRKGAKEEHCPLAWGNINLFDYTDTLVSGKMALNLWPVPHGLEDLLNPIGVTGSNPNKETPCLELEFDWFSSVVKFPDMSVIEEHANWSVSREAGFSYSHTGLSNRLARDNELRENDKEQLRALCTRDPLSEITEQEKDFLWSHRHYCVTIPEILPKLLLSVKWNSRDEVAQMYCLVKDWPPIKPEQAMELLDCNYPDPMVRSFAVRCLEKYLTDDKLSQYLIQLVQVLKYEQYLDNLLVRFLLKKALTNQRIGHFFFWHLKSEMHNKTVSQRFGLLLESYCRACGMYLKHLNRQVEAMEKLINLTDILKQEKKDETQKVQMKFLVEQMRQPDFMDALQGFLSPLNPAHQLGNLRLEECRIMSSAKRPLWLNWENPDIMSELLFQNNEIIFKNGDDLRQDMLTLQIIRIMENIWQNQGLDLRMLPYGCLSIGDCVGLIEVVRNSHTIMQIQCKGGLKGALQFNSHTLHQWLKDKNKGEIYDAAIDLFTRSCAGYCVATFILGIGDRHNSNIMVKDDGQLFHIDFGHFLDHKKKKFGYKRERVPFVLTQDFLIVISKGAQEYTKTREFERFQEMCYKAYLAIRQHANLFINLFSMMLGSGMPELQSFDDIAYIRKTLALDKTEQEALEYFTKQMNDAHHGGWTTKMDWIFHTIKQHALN
# T2 sequence (P26450 whole entry partner): as the sequence (P26450 whole entry partner, canonical isoform) above
# Sequence of PI3Kγ (Q9JHG7 whole entry): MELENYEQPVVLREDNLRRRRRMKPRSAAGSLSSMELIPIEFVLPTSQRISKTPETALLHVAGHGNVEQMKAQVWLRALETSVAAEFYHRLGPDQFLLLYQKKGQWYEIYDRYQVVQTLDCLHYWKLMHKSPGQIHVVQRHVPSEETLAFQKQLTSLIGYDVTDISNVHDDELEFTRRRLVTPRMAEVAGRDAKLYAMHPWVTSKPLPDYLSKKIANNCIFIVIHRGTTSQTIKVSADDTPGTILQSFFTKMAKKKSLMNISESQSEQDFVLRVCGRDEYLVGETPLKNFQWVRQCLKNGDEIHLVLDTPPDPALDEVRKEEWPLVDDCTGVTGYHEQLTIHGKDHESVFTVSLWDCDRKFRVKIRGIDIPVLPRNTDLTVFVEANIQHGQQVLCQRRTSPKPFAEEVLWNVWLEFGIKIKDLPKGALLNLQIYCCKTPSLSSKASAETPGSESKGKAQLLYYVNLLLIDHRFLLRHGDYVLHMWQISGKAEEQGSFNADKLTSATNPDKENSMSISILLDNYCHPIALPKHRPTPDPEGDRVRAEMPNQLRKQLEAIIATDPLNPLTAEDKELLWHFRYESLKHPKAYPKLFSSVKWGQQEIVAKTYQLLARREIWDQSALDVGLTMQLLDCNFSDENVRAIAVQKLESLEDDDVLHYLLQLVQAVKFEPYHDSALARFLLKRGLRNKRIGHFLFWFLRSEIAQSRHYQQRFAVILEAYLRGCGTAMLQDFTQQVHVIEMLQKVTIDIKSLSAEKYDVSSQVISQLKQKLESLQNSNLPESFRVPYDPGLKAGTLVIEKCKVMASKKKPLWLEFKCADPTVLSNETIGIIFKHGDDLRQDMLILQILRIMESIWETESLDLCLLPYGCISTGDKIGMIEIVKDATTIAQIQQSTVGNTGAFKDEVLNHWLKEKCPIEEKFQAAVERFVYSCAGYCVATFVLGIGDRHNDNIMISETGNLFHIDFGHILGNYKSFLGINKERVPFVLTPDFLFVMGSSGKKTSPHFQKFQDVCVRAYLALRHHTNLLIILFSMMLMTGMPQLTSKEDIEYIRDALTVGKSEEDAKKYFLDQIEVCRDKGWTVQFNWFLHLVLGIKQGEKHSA
SMILES,GI50 (OCI-AML-3) [nM],GI50 (AMO-1) [nM],GI50 (U937) [nM],GI50 (HL-60) [nM],GI50 (MOLM-14) [nM],GI50 (Namalwa) [nM],GI50 (NB4) [nM],GI50 (MV4-11) [nM],GI50 (PF382) [nM],GI50 (HT) [nM],GI50 (SKM-1) [nM],GI50 (CMK) [nM],GI50 (HEL) [nM],GI50 (OCI-AML-2) [nM],GI50 (RPMI8226) [nM],GI50 (NOMO-1) [nM],GI50 (Ramos(new)) [nM],GI50 (NALM-6) [nM],GI50 (MOLM-13) [nM],GI50 (JVM-2) [nM],also measured
CS(=O)(=O)N1CCN(Cc2cc3nc(-c4cccc5[nH]ncc45)nc(N4CCOCC4)c3s2)CC1 [GDC-0941],730,300,1600,160,300,390,1000,1400,460,500,540,300,> 10000,2000,2600,1000,2100,390,150,> 10000,EC50 (PI3Kβ): 176 nM; EC50 (PI3Kα): 624 nM
"CC[C@H](Nc1ncnc2[nH]cnc12)c1nc2cccc(F)c2c(=O)n1-c1ccccc1 [CAL-101, Idelalisib]",2400,> 10000,> 10000,> 10000,7800,> 10000,> 10000,> 10000,> 10000,> 10000,> 10000,> 10000,> 10000,> 10000,> 10000,> 10000,> 10000,> 10000,> 10000,> 10000,"GI50 (Hs 505T): > 10000 nM; GI50 (MEC-1): > 10000 nM; GI50 (MEC-2): > 10000 nM; GI50 (AML patient primary cell; AML1, patient primary cell AML1): > 10000 nM; GI50 (AML patient primary cell; AML3, patient primary cell AML3): > 10000 nM; GI50 (AML patient primary cell; patient primary cell AML2): 1010 nM; GI50 (AML patient primary cell; patient primary cell AML4): > 10000 nM; GI50 (AML patient primary cell; patient primary cell AML5): > 10000 nM; GI50 (AML patient primary cell; patient primary cell AML6): > 10000 nM; EC50 (PI3Kγ): 2320 nM; GI50 (CLL patient primary cell; patient primary cell CLL16): > 10000 nM; GI50 (CLL patient primary cell; patient primary cell CLL18): > 10000 nM; GI50 (CLL patient primary cell; patient primary cell CLL19): > 10000 nM; EC50 (PI3Kβ): > 3000 nM; EC50 (PI3Kα): > 3000 nM"
